Assays:
normal subjects [1] = experiment: PET myocardial blood flow / coronary flow reserve after regadenoson with and without caffeine, crossover study; assay type: in vivo, human; settings: for log CFR±SE: n=40
Experimental: (§1) 15O water was used as the radionuclide in the PET scans. There was a 1- to 14-day washout period between dosing days. Blood samples and measures of safety were collected until 120 minutes after study drug administration.
The CVT tracking number for the placebo capsules was 1341 (Leg 2).
The primary efficacy measure was the log coronary flow reserve (CFR), which is the ratio of stress MBF after regadenoson dosing to the resting MBF.
The data were also to be analyzed using Wilcoxon's rank-sum test.

normal subjects [2] = experiment: Safety and tolerability of regadenoson with and without prior caffeine; assay type: in vivo, human
Experimental: as §1
Safety measures included adverse events (AEs), serious adverse events, vital signs (HR and BP), ECG, concomitant medications, and a tolerability questionnaire. All available data from subjects who received the single dose of regadenoson were to be included in the statistical summaries.
ECG intervals and changes from baseline values in ECG intervals were to be presented, as were occurrences of rhythm or conduction abnormalities. Concomitant medication usage was to be summarized.
Tolerability questionnaire responses were to be analyzed using the Wilcoxen rank sum test (“How did you feel?” question) and the exact Cochran-Mantel-Haenszel test (Day 2-only question “How did this test compare to the first test?”).

[3] = caffeine 200 mg po, regadenoson 400 μg IV
[4] = regadenoson 400 μg IV after caffeine 200 mg po
[5] = caffeine 200 mg po vs placebo, regadenoson 400 μg IV, p<0.001
[6] = regadenoson 400 μg IV after placebo capsule
[7] = regadenoson 400 μg IV, 25/43 subjects

`Cn1c(=O)c2c(ncn2C)n(C)c1=O` [Caffeine, caffeine] was tested, and the “change in CFR (95% confidence)” value (normal subjects [1]; caffeine 200 mg po vs placebo, regadenoson 400 μg IV) was < 20%, the “exponentiated lower limit of 90% confidence interval for log CFR (caffeine versus placebo difference)” value (normal subjects [1]; [3]) was 0.80 and the “exponentiated lower limit of 95% confidence interval for log CFR (caffeine versus placebo difference)” value (normal subjects [1]; [3]) was 0.78. The “exponentiated upper limit of 90% confidence interval for log CFR (caffeine versus placebo difference)” value (normal subjects [1]; [3]) was 1.06, the “exponentiated upper limit of 95% confidence interval for log CFR (caffeine versus placebo difference)” value (normal subjects [1]; [3]) was 1.08 and the “interaction of caffeine with regadenoson on CFR by sex” value (normal subjects [1]; [3]) was “no significant interaction”. The “CFR (stress/rest)” value (normal subjects [1]; [4]) was 2.75±0.16, the “log CFR±SE” value (normal subjects [1]; [4]) was 0.95±0.06 and the “tolerability questionnaire: comfort during the test with caffeine” value (normal subjects [2]; [5]) was “felt more comfortable”. The “tolerability questionnaire: feeling after the caffeine test vs the placebo test” value (normal subjects [2]; [5]) was “felt better”, the “effect of caffeine on severity of AEs” value (normal subjects [2]; [3]) was “attenuated” and the “effect of caffeine on systolic or diastolic blood pressures in the presence of regadenoson” value (normal subjects [2]; [3]) was “no effect”. For the same compound, the “overall incidence of AEs, placebo vs caffeine groups” value (normal subjects [2]; [3]) was “no difference”, the “effect of caffeine on HR increase caused by regadenoson” value (normal subjects [2]; caffeine 200 mg po, regadenoson 400 μg IV, p<0.001) was “attenuated” and the “regadenoson-induced headache severity with caffeine” value (normal subjects [2]; caffeine 200 mg po, regadenoson 400 μg IV, p=0.012) was “decreased”.

`CNC(=O)c1cnn(-c2nc(N)c3ncn([C@@H]4O[C@H](CO)[C@@H](O)[C@H]4O)c3n2)c1` [Regadenoson, (1-{9-[(4S,2R,3R,5R)-3,4-dihydroxy-5-(hydroxymethyl)oxolan-2-yl]-6-aminopurin-2-yl}pyrazol-4-yl)-N-methylcarboxamide] was tested, and the “CFR (stress/rest)” value (normal subjects [1]; [6]) was 2.97±0.16, the “log CFR±SE” value (normal subjects [1]; [6]) was 1.03±0.06 and the “AE sensation of heaviness, percentage of subjects” value (normal subjects [2]; regadenoson 400 μg IV) was 28%. The “QTc prolongation (>500 msec and change of >60 msec) by ECG analysis after regadenoson dosing” value (normal subjects [2]; regadenoson 400 μg IV) was “one subject”, the “first degree AV block by ECG analysis after regadenoson dosing” value (normal subjects [2]; regadenoson 400 μg IV) was “one subject” and the “deaths or SAEs” value (normal subjects [2]; regadenoson 400 μg IV with and without caffeine) was “no reported deaths or SAEs”. The “patients with at least one AE considered possibly related to regadenoson treatment” value (normal subjects [2]; regadenoson 400 μg IV, 1/43) was 2%, the “AEs: ear and labyrinth disorders, percentage of subjects” value (normal subjects [2]; regadenoson 400 μg IV, 1/43 subjects) was 2% and the “AEs: gastrointestinal disorders, percentage of subjects” value (normal subjects [2]; regadenoson 400 μg IV, 2/43 subjects) was 5%. The “subjects with at least one AE with a maximum severity of severe” value (normal subjects [2]; regadenoson 400 μg IV, 4/43) was 9%, the “AE paraesthesia, percentage of subjects” value (normal subjects [2]; regadenoson 400 μg IV, 8/43) was 19% and the “AEs: general disorders and administration site conditions, percentage of subjects” value (normal subjects [2]; regadenoson 400 μg IV, 11/43 subjects) was 26%. The “AE headache, percentage of subjects” value (normal subjects [2]; regadenoson 400 μg IV, 12/43) was 28%, the “AEs: musculoskeletal and connective tissue disorders, percentage of subjects” value (normal subjects [2]; regadenoson 400 μg IV, 12/43 subjects) was 28% and the “AE flushing, percentage of subjects” value (normal subjects [2]; regadenoson 400 μg IV, 13/43) was 30%. The “AEs: vascular disorders, percentage of subjects” value (normal subjects [2]; regadenoson 400 μg IV, 13/43 subjects) was 30%, the “AEs: nervous system disorders, percentage of subjects” value (normal subjects [2]; regadenoson 400 μg IV, 18/43 subjects) was 42% and the “AE palpitations, percentage of subjects” value (normal subjects [2]; regadenoson 400 μg IV, 21/43) was 49%. For the same compound, the “subjects with at least one AE with a maximum severity of moderate” value (normal subjects [2]; regadenoson 400 μg IV, 21/43) was 49%, the “AE dyspnoea, percentage of subjects” value (normal subjects [2]; regadenoson 400 μg IV, 24/43) was 56% and the “AEs: cardiac disorders, percentage of subjects” value (normal subjects [2]; [7]) was 58%. The “AEs: respiratory, thoracic and mediastinal disorders, percentage of subjects” value (normal subjects [2]; [7]) was 58%, the “subjects with at least one AE with a maximum severity of mild” value (normal subjects [2]; regadenoson 400 μg IV, forty percent) was 17/43 and the “subjects with at least one AE considered probably related to regadenoson treatment” value (normal subjects [2]; regadenoson 400 μg IV, ninety-five percent) was 41/43.

From patent US20100086483A1, “METHOD OF MULTIDETECTOR COMPUTED TOMAGRAPHY” (Gilead Palo Alto, Inc., priority 2008, published 2010)
